Test results: PubChem BioAssay AID2060503 (Molecular Pharmacology Branch, DTP, NCI, 2025)
Where “and” joins values, the source holds several entries; their conditions need not be identical. Equal values may be shown once.

System: 817829-284-R-J1-PDC complex spheroids, viability
Assay: Anticancer human tumor 817829-284-R-J1-PDC patient-derived colon adenocarcinoma cell line growth inhibition [GQUAD]
Details: for viability, T/C: stronger effect = lower value
Description: DNA G-quadruplex Stabilizer Agents in Combinations in Complex Spheroids
A high-throughput screen of multi-cell type tumor spheroids was designed to identify active combinations of DNA G-quadruplex stabilizer agents and targeted small molecules. Complex spheroids include a stromal component modeled by human endothelial cells (HUVEC) and fibroblasts modeled by human mesenchymal stem cells (MSCs). The concentration ranges selected for each drug and investigational agent were based upon clinically achievable concentrations if the clinical Cmax of the agent was known.
Compounds. The drugs and investigational agents: pidnarulex (CX-5461; NSC782164), APTO-253 (NSC789042), BRACO-19 (NSC847499), peposertib (NSC802822), ceralasertib (NSC780249), elimusertib (NSC800525), camonsertib (NSC841442), AZD-1390 (NSC803789), olaparib (NSC753686), talazoparib (NSC767125), ART-558 (NSC835418), sotorasib (NSC818433), MRTX-1133 (NSC836407), SN-38 (NSC673596), topotecan (NSC609699), etoposide (NSC141540), doxorubicin (NSC123127), gemcitabine (NSC613327), 5-fluorouracil (NSC19893), paclitaxel (NSC125973), vemurafenib (NSC761431), panobinostat (NSC761190), R-306465 (JNJ-16241199; NSC773264), adavosertib (NSC754352), TP-3654 (NSC805149), carboplatin (NSC241240), KSQ-4279 (NSC840948), and staurosporine (NSC755774) were obtained from the National Cancer Institute (NCI) Developmental Therapeutics Program Chemical Repository (34). The FDA-approved anticancer drug set is available from the NCI Developmental Therapeutics Program. […] The stock solutions were prepared in dimethyl sulfoxide (DMSO, Sigma-Aldrich, St. Louis, MO, cat. D2650) at 800-fold the tested concentration and stored at -70 degrees C prior to their use. All drugs and investigational agents were tested over a range starting from a high concentration at or near the clinical Cmax and decreasing in half-log increments. If the clinical Cmax for an agent had not been determined, the highest concentration tested was 10 microM.
2.3 Cell Culture. All cells were maintained in an incubator at 37 degrees C and 5% CO2 with 95% humidity. The PDC lines were cultured according to standard operating procedures established by the NCI PDMR. All PDCs were thawed and cultured in Matrigel-coated flasks prepared with a working solution of 1X Ham's F-12 nutrient mix, without supplementation (Invitrogen, cat. 11765054), 100 U/mL penicillin-streptomycin (Invitrogen, cat. 15140122), and 2.5% Matrigel (Corning Inc., cat. 354248) for the first three passages. The 857933-349-R-J2-PDC line was cultured in 6C/Colon 1B media, which includes advanced DMEM/F-12 (Thermo Fisher Scientific, cat. 12634028), 10 mM HEPES (Thermo Fisher Scientific, cat. 15630080), 1X GlutaMAX supplement (Thermo Fisher Scientific, cat. 35050061), 0.1 mg/mL primocin (InvivoGen, cat. ant-pm-2), 10% defined fetal bovine serum, heat inactivated (HyClone Laboratories Inc., cat. SH30070.03HI), 50% L-WRN conditioned media (ATCC, cat. CRL-3276), 1.25 mM N-Acetyl-L-cysteine (Sigma-Aldrich, cat. A9165), 10 mM nicotinamide (Sigma-Aldrich, cat. N0636), 1X B-27 supplement (Thermo Fisher Scientific, cat. 17504044), 1X N-2 supplement (Thermo Fisher Scientific, cat. 17502048), 10 microM Y-27632 dihydrochloride (Tocris Bioscience, cat. 1254), and 50 ng/mL human EGF recombinant protein (Thermo Fisher Scientific, cat. PHG0311). The 485176-168-R4-J1-PDC line was cultured in Panc media, which includes all 6C/Colon 1B media components plus 100 ng/mL human FGF-10 (Thermo Fisher Scientific, cat. 100-26), 500 nM SB-431542 (Selleckchem, cat. S1067), and gastrin (Tocris, cat. 3006).
[…]

[1] = curve of first compound, second compound 0.0316 µM
[2] = curve of first compound, second compound 0.1 µM
[3] = curve of first compound, second compound 0.316 µM
[4] = curve of first compound, second compound 1 µM
[5] = curve of first compound, second compound 3.16 µM
[6] = curve of first compound, second compound 10 µM
[7] = second compound 0.0316 µM, first compound 0.0316 µM
[8] = second compound 0.0316 µM, first compound 0.1 µM
[9] = second compound 0.0316 µM, first compound 0.316 µM
[10] = second compound 0.0316 µM, first compound 1 µM
[11] = second compound 0.0316 µM, first compound 3.16 µM
[12] = second compound 0.0316 µM, first compound 10 µM
[13] = second compound 0.1 µM, first compound 0.0316 µM
[14] = second compound 0.1 µM, first compound 0.1 µM
[15] = second compound 0.1 µM, first compound 0.316 µM
[16] = second compound 0.1 µM, first compound 1 µM
[17] = second compound 0.1 µM, first compound 3.16 µM
[18] = second compound 0.1 µM, first compound 10 µM
[19] = second compound 0.316 µM, first compound 0.0316 µM
[20] = second compound 0.316 µM, first compound 0.1 µM
[21] = second compound 0.316 µM, first compound 0.316 µM
[22] = second compound 0.316 µM, first compound 1 µM
[23] = second compound 0.316 µM, first compound 3.16 µM
[24] = second compound 0.316 µM, first compound 10 µM
[25] = second compound 1 µM, first compound 0.0316 µM
[26] = second compound 1 µM, first compound 0.1 µM
[27] = second compound 1 µM, first compound 0.316 µM
[28] = second compound 1 µM, first compound 1 µM
[29] = second compound 1 µM, first compound 3.16 µM
[30] = second compound 1 µM, first compound 10 µM
[31] = second compound 3.16 µM, first compound 0.0316 µM
[32] = second compound 3.16 µM, first compound 0.1 µM
[33] = second compound 3.16 µM, first compound 0.316 µM
[34] = second compound 3.16 µM, first compound 1 µM
[35] = second compound 3.16 µM, first compound 3.16 µM
[36] = second compound 3.16 µM, first compound 10 µM
[37] = second compound 10 µM, first compound 0.0316 µM
[38] = second compound 10 µM, first compound 0.1 µM
[39] = second compound 10 µM, first compound 0.316 µM
[40] = second compound 10 µM, first compound 1 µM
[41] = second compound 10 µM, first compound 3.16 µM
[42] = second compound 10 µM, first compound 10 µM
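Further: spheroids exposed to agents for 7 days before readout.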
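Wherever viability, T/C is given: percent viability relative to DMSO vehicle control taken as 100%.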

CC1COCCN1c1cc(-c2ccnn2C)c2ccnc(-c3ccn[nH]3)c2n1 (stereo not given) + CN(C)c1ccc(Nc2c3ccc(NC(=O)CCN4CCCC4)cc3nc3cc(NC(=O)CCN4CCCC4)ccc23)cc1
IC50 [1]: < 0.0316 µM
IC50 [2]: < 0.0316 µM
IC50 [3]: < 0.0316 µM
IC50 [4]: < 0.0316 µM
IC50 [5]: < 0.0316 µM
IC50 [6]: < 0.0316 µM
viability, T/C [7]: 49.1%
viability, T/C [8]: 21.1%
viability, T/C [9]: 10.9%
viability, T/C [10]: 7.46%
viability, T/C [11]: 6.76%
viability, T/C [12]: 6.4%
viability, T/C [13]: 43.7%
viability, T/C [14]: 19.4%
viability, T/C [15]: 9.94%
viability, T/C [16]: 7.09%
viability, T/C [17]: 6.81%
viability, T/C [18]: 5.85%
viability, T/C [19]: 41.3%
viability, T/C [20]: 20.7%
viability, T/C [21]: 9.46%
viability, T/C [22]: 9.2%
viability, T/C [23]: 6.26%
viability, T/C [24]: 5.57%
viability, T/C [25]: 45.9%
viability, T/C [26]: 19.1%
viability, T/C [27]: 9.31%
viability, T/C [28]: 8.05%
viability, T/C [29]: 7.11%
viability, T/C [30]: 5.77%
viability, T/C [31]: 36.6%
viability, T/C [32]: 16.5%
viability, T/C [33]: 9.69%
viability, T/C [34]: 9.19%
viability, T/C [35]: 7.57%
viability, T/C [36]: 5.75%
viability, T/C [37]: 25%
viability, T/C [38]: 16.9%
viability, T/C [39]: 8.98%
viability, T/C [40]: 6.93%
viability, T/C [41]: 5.14%
viability, T/C [42]: 3.02%

CC(C)(O)C1CCC(Nc2ccc3ncc(-c4cccc(C(F)(F)F)c4)n3n2)CC1 (stereo not given) + Cc1cnc(CNC(=O)c2c(=O)c3ccc(N4CCCN(C)CC4)nc3n3c2sc2ccccc23)cn1
IC50 [1]: 0.527 µM
IC50 [2]: < 0.0316 µM
IC50 [3]: < 0.0316 µM
IC50 [4]: < 0.0316 µM
IC50 [5]: < 0.0316 µM
IC50 [6]: < 0.0316 µM
viability, T/C [7]: 63.1%
viability, T/C [8]: 53.3%
viability, T/C [9]: 76.1%
viability, T/C [10]: 32.3%
viability, T/C [11]: 5.43%
viability, T/C [12]: 13.3%
viability, T/C [13]: 31.4%
viability, T/C [14]: 36.8%
viability, T/C [15]: 26%
viability, T/C [16]: 20.4%
viability, T/C [17]: 7.21%
viability, T/C [18]: 8.8%
viability, T/C [19]: 22.4%
viability, T/C [20]: 25.3%
viability, T/C [21]: 25.3%
viability, T/C [22]: 16.4%
viability, T/C [23]: 1.35%
viability, T/C [24]: 3.38%
viability, T/C [25]: 16.6%
viability, T/C [26]: 21.5%
viability, T/C [27]: 21%
viability, T/C [28]: 15.8%
viability, T/C [29]: 0.04%
viability, T/C [30]: 0.05%
viability, T/C [31]: 20.8%
viability, T/C [32]: 18%
viability, T/C [33]: 19.1%
viability, T/C [34]: 9.34%
viability, T/C [35]: 0.09%
viability, T/C [36]: 0.09%
viability, T/C [37]: 0.11%
viability, T/C [38]: 0.13%
viability, T/C [39]: 0.17%
viability, T/C [40]: 0.12%
viability, T/C [41]: 0.19%
viability, T/C [42]: 0.18%

O=C(NO)c1cnc(N2CCN(S(=O)(=O)c3ccc4ccccc4c3)CC2)nc1
viability, T/C (compound 0.0316 µM): 114% and 111% and 117%
viability, T/C (compound 0.1 µM): 17.6% and 102% and 59%
viability, T/C (compound 0.316 µM): 0.33% and 5.46% and 5.25%
viability, T/C (compound 1 µM): 0.17% and 0.29% and 0.13%
viability, T/C (compound 3.16 µM): 0.1% and 0.26% and 0.04%
viability, T/C (compound 10 µM): 0.15% and 0.25% and 0.07%
IC50 (curve of compound): 0.0679 µM and 0.186 µM and 0.121 µM

CC(C)n1c(=O)n(C)c2cnc3cc(F)c(-c4ccc(OCCCN5CCCCC5)nc4)cc3c21 + Cc1cnc(CNC(=O)c2c(=O)c3ccc(N4CCCN(C)CC4)nc3n3c2sc2ccccc23)cn1
IC50 [1]: < 0.0316 µM
IC50 [2]: < 0.0316 µM
IC50 [3]: < 0.0316 µM
IC50 [4]: < 0.0316 µM
IC50 [5]: < 0.0316 µM
IC50 [6]: < 0.0316 µM
viability, T/C [7]: 37.7%
viability, T/C [8]: 32.1%
viability, T/C [9]: 36.5%
viability, T/C [10]: 25.1%
viability, T/C [11]: 26.6%
viability, T/C [12]: 12.1%
viability, T/C [13]: 30.4%
viability, T/C [14]: 27.3%
viability, T/C [15]: 31.3%
viability, T/C [16]: 23.4%
viability, T/C [17]: 22.9%
viability, T/C [18]: 14.6%
viability, T/C [19]: 23.7%
viability, T/C [20]: 28.1%
viability, T/C [21]: 23.1%
viability, T/C [22]: 21.5%
viability, T/C [23]: 24.4%
viability, T/C [24]: 9.33%
viability, T/C [25]: 19.7%
viability, T/C [26]: 21.1%
viability, T/C [27]: 21.9%
viability, T/C [28]: 23.1%
viability, T/C [29]: 24.2%
viability, T/C [30]: 8.09%
viability, T/C [31]: 16.6%
viability, T/C [32]: 18.5%
viability, T/C [33]: 19%
viability, T/C [34]: 21%
viability, T/C [35]: 18.8%
viability, T/C [36]: 7.12%
viability, T/C [37]: 0.15%
viability, T/C [38]: 0.17%
viability, T/C [39]: 0.18%
viability, T/C [40]: 0.17%
viability, T/C [41]: 0.18%
viability, T/C [42]: 0.18%

CC1COCCN1c1cc(C2(O)CC3CCC(C2)O3)c2cnn(-c3ccn[nH]3)c2n1 (stereo not given)
viability, T/C (compound 0.0316 µM): 39.5% and 42.2% and 31.3%
viability, T/C (compound 0.1 µM): 10.2% and 9.96% and 13.3%
viability, T/C (compound 0.316 µM): 7.94% and 8.95%
viability, T/C (compound 1 µM): 6.19% and 4.8% and 7.29%
viability, T/C (compound 3.16 µM): 5.19% and 5.01% and 5.9%
viability, T/C (compound 10 µM): 2.86% and 3.51% and 4.63%
IC50 (curve of compound): < 0.0316 µM
